According to ChEMBL document CHEMBL1201862, “PubChem BioAssay data set” (2004):
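Grown in 96-well plates, cells were treated for 48 hours with each compound at five concentrations. Insufficient inhibition: endpoint recorded as highest concentration tested. At the GI50, growth is halved.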 Activity calls are given as the source filed them. Cut-off read from the data, not from the text of the source: active = GI50 up to about 1.1 µM and inactive = higher.

Tests used:
Test in all cases: DTP human tumour cell line panel, 48 h
SNB-75 = tested on: SNB-75
U-251 = tested on: U-251
SF-539 = tested on: SF-539
SR = tested on: SR
NCI-H460 = tested on: NCI-H460
Hs-578T = tested on: Hs-578T
KM12 = tested on: KM12
786-0 = tested on: 786-0
SK-MEL-5 = tested on: SK-MEL-5
UACC-257 = tested on: UACC-257
HL-60 = tested on: HL-60
K562 = tested on: K562
CAKI-1 = tested on: CAKI-1
RPMI-8226 = tested on: RPMI-8226
DU-145 = tested on: DU-145
HT-29 = tested on: HT-29
SF-295 = tested on: SF-295
Malme-3M = tested on: Malme-3M
NCI-H226 = tested on: NCI-H226
A549 = tested on: A549

Compound: C=C(Cl)C(C)(Cl)CCC(Cl)C(C)(C)Cl (stereo not given)
- GI50 (SNB-75): 41.9 µM (inactive)
- GI50 (U-251): 46.9 µM (inactive)
- GI50 (SF-539): > 100 µM (inactive)
- GI50 (SR): 23.8 µM (inactive)
- GI50 (NCI-H460): 78.9 µM (inactive)
- GI50 (Hs-578T): 27 µM (inactive)
- GI50 (KM12): 87.9 µM (inactive)
- GI50 (786-0): > 100 µM (inactive)
- GI50 (SK-MEL-5): 50.5 µM (inactive)
- GI50 (UACC-257): 29.4 µM (inactive)
- GI50 (HL-60): 36.2 µM (inactive)
- GI50 (K562): 33.7 µM (inactive)
- GI50 (CAKI-1): > 100 µM (inactive)
- GI50 (RPMI-8226): 20.5 µM (inactive)
- GI50 (DU-145): > 100 µM (inactive)
- GI50 (HT-29): 43.7 µM (inactive)
- GI50 (SF-295): > 100 µM (inactive)
- GI50 (Malme-3M): 38.2 µM (inactive)
- GI50 (NCI-H226): 42.3 µM (inactive)
- GI50 (A549): 44.8 µM (inactive)

Compound: CCn1ncc(Oc2c(Cl)cc(N)cc2Cl)c(Cl)c1=O
- GI50 (SNB-75): 51.5 µM (inactive)
- GI50 (U-251): 34.1 µM (inactive)
- GI50 (SF-539): 31.6 µM (inactive)
- GI50 (SR): 21.5 µM (inactive)
- GI50 (NCI-H460): 32.2 µM (inactive)
- GI50 (Hs-578T): 22.5 µM (inactive)
- GI50 (KM12): 34.8 µM (inactive)
- GI50 (786-0): 41.5 µM (inactive)
- GI50 (SK-MEL-5): 24 µM (inactive)
- GI50 (UACC-257): 31.6 µM (inactive)
- GI50 (HL-60): 34.2 µM (inactive)
- GI50 (K562): 35.1 µM (inactive)
- GI50 (CAKI-1): 35.1 µM (inactive)
- GI50 (RPMI-8226): 31.6 µM (inactive)
- GI50 (DU-145): 60.8 µM (inactive)
- GI50 (HT-29): 25.3 µM (inactive)
- GI50 (SF-295): 29 µM (inactive)
- GI50 (Malme-3M): 32.9 µM (inactive)
- GI50 (NCI-H226): 40.3 µM (inactive)
- GI50 (A549): 30.5 µM (inactive)

Compound: Nc1nc(O)c2[nH]nnc2n1 [8-AZAGUANINE]
- GI50 (SNB-75): 1.54 µM (inactive)
- GI50 (U-251): 1.74 µM (inactive)
- GI50 (SF-539): 0.361 µM (active)
- GI50 (SR): 2.42 µM (inactive)
- GI50 (NCI-H460): 11.4 µM (inactive)
- GI50 (Hs-578T): 0.906 µM (active)
- GI50 (KM12): 34.1 µM (inactive)
- GI50 (786-0): 0.292 µM (active)
- GI50 (SK-MEL-5): 0.748 µM (active)
- GI50 (UACC-257): 0.735 µM (active)
- GI50 (HL-60): 0.326 µM (active)
- GI50 (K562): 0.268 µM (active)
- GI50 (CAKI-1): 0.304 µM (active)
- GI50 (RPMI-8226): 0.234 µM (active)
- GI50 (DU-145): 0.684 µM (active)
- GI50 (HT-29): 26.1 µM (inactive)
- GI50 (SF-295): 3.11 µM (inactive)
- GI50 (Malme-3M): 0.352 µM (active)
- GI50 (NCI-H226): 0.789 µM (active)
- GI50 (A549): 33 µM (inactive)

Compound: O[C@H]1[C@H]2c3cc4c(cc3CN3CCC(=C[C@@H]1O)[C@H]23)OCO4 [LYCORINE]
- GI50 (SNB-75): 3.13 µM (inactive)
- GI50 (U-251): 1.99 µM (inactive)
- GI50 (SF-539): 1.8 µM (inactive)
- GI50 (SR): 1.47 µM (inactive)
- GI50 (NCI-H460): 1.26 µM (inactive)
- GI50 (Hs-578T): 2.91 µM (inactive)
- GI50 (KM12): 2.7 µM (inactive)
- GI50 (786-0): 3.1 µM (inactive)
- GI50 (SK-MEL-5): 1.42 µM (inactive)
- GI50 (UACC-257): 0.65 µM (active)
- GI50 (HL-60): 2.14 µM (inactive)
- GI50 (K562): 1.2 µM (inactive)
- GI50 (CAKI-1): 1.24 µM (inactive)
- GI50 (RPMI-8226): 2.01 µM (inactive)
- GI50 (DU-145): 1.32 µM (inactive)
- GI50 (HT-29): 1.46 µM (inactive)
- GI50 (SF-295): 2.69 µM (inactive)
- GI50 (Malme-3M): 1.92 µM (inactive)
- GI50 (NCI-H226): 2.76 µM (inactive)
- GI50 (A549): 1.39 µM (inactive)
